Measured values from patent US4871765A, “Amine derivative and its salt and anti-ulcer agent containing the same” (Toyama Chemical Co., Ltd., priority 1987, dated 1989).

Experiments:
Acute toxicity = assay type: in vivo; conditions: mouse, in vivo; ICR mice (male, 27-30 g), intravenous, up and down method
Procedure: (§1) A test compound was administered to ICR mice (male, 27-30 g) intravenously,and the LD50 value was calculated by the up and down method.

ICR mice = experiment: Acute toxicity; assay type: in vivo; conditions: ICR mice (male, 27-30 g), intravenous, up and down method
Procedure: as §1

gastric acid secretion = experiment: Inhibitory activity on gastric acid secretion (pylorus ligation method); assay type: in vivo, Wistar rats (male); conditions: intraduodenal, histamine 25 mg/kg s.c., 3 hours
Procedure: [I] Inhibitory activity on gastric acid secretion (pylorus ligation method)
This activity was measured in accordance with the method by H. Shay et al. described in Gastroenterology, 5, 43 (1945). Groups of six or seven Wistar rats (male, 190-230 g) were fasted for 24 hours, following which the pylorus of each rat was ligated under ether anesthesia. The test compounds were administered intraduodenally after ligation. Thereafter, the rats were subjected to celiorrhaphy and immediately 25 mg/kg of histamine was administered to them subcutaneously at the dorsal. After 3 hours, the cardia of stomach was ligated, and then the stomach was removed. The gastric juice was collected by centrifugation and the total amount was quantitated. 1 ml of the gastric juice was taken and titrated with a 0.1 N aqueous sodium hydroxide solution to an end point of pH 7.0. In administering the test compound, the compound was dissolved in dimethyl sulfoxide (DMSO) and then diluted with distilled water to obtain a 0.25% aqueous DMSO solution containing the test compound. A 0.25% aqueous DMSO solution containing no test compound was administered to control group.
The inhibition rate of gastric acid secretion was calculated from the following equation: [formula]

`CN(C)Cc1ccc(CSCCNC(=NS(C)(=O)=O)NCC(O)c2ccc(O)cc2)o1` (stereo not shown) [Test compound 5, reference compound] gave an LD50 (Acute toxicity) of 90.7 mg/kg.

With “N-[2-hydroxy-2-[3-(methanesulfonylamino)phenyl]ethyl]-N'-methanesulfonyl-N"-[2-[[5-(methylamino)-methyl-2-furyl]methylthio]ethyl]guanidine [Test compound 3]” the LD50 (ICR mice) was 151.0 mg/kg.

For “N-[2-(4-carbamoylphenyl)-2-hydroxyethyl]-N'-methanesulfonyl-N"-[2-[[5-(methylamino)methyl-2furyl]-methylthio]ethyl]guanidine [Test compound 2]”, the LD50 (ICR mice) was 129.8 mg/kg.

Work on `CNCc1ccc(CSCCNC(=NS(C)(=O)=O)NCC(O)c2ccc(O)cc2)o1` (stereo not shown) [compound 1] yielded an inhibition at 0.625 mg/kg (gastric acid secretion; Rattus norvegicus, dose 0.625 mg/kg, **p < 0.01, read-out: Inhibition rate) of 67.6%, an inhibition at 1.25 mg/kg (gastric acid secretion; Rattus norvegicus, dose 1.25 mg/kg, **p < 0.01, *p < 0.05, read-out: Inhibition rate) of 82.2% and an LD50 (Acute toxicity) of 100 mg/kg.

Work on “N-[2-hydroxy-2-(4-hydroxyphenyl)ethyl]-N'-methanesulfonyl-N"-[2-[[5-(methylamino)methyl-2-furyl]methylthio]ethyl]guanidine [Example 1 (1)]” yielded an Inhibition rate (gastric acid secretion; dose 1.25 mg/kg, **p < 0.01, *p < 0.05, listed as 2) of 51.3%, an Inhibition rate (gastric acid secretion; dose 1.25 mg/kg, **p < 0.01, *p < 0.05, listed as 3) of 54.2% and an Inhibition rate (gastric acid secretion; dose 1.25 mg/kg, **p < 0.01, *p < 0.05, listed as 4) of 30.6%.

“S(-)-N-[2-hydroxy-2-(4-hydroxyphenyl)ethyl]-N'-methanesulfonyl-N"-[2-[[5-(methylamino)methyl-2-furyl]methylthio]ethyl]guanidine [Example 5]” gave an Inhibition rate (gastric acid secretion; dose 5.0 mg/kg) of 32.7%.
